Entries after “also recorded” stand apart in the source; their conditions may differ.
What was measured:
[1] = Body weight in atherosclerosis study; assay type: in vivo, mouse
Protocol: Twenty four (24) 8 week old Ldlr^−/−Apobec1^−/− mice were randomly assigned to either control group (normal rodent chow, Lab Diet, Richmond, Ind., N=12) or morelloflavone group (normal rodent chow supplemented with 0.003% (w/w) morelloflavone, N=12). The 0.003% (w/w) morelloflavone corresponds to approximately 4 mg/kg morelloflavone for 30 gram animals that consume 4 grams of chow. Animals were housed individually in an air-conditioned room with 12-h light/dark cycle with access to food and water. Body weight of these mice was monitored monthly. After 8 months, animals were sacrificed for analyses of atherosclerosis. Just prior to the sacrifice, blood was sampled from the heart and collected into micro-centrifuge tubes containing EDTA. The entire aortae were excised. All animal experimentation protocols were performed according to the protocol approved by the Institutional Animal Care and Use Committee (IACUC) of the University of Texas Health Science Center at Houston, in accordance with the National Institutes of Health guidelines.

[2] = test system: Rac1; experiment: GTPase activation assay, Rac1; assay type: cell-based, mouse; settings: up to 10 mM
Protocol: To assess the phosphorlyation status of ERK, […] of whole cell lysates was loaded onto SDS-PAGE, and Western blot analysis was done using anti-p-ERK (Santa Cruz; E-4; sc-7383) and anti-ERK (Santa Cruz; K-23; sc-94) antibodies. To detect active RhoA, Rac1 and Cdc42, generated GST-tagged RhoA binding domain of Rhotekin protein (GST-Rhotekin-RBD) and GST-tagged p21-binding domain of p21-activated kinase 1 (PAK1)(GST-PAK1-PBD) were first generated. Briefly, E. coli BL21 cells transformed with pGEX4T-PAK1-PBD or pGEX4T-Rh,otekin-RBD were grown at 37° C. and expression of recombinant protein was induced by addition of 0.1 mM IPTG for 3 hours. Cells were resuspended in lysis buffer (50 mM Tris-HCl, pH 8.0, 10% glycerol, 20% sucrose, 2 mM DTT, 1 mg/ml leupeptin, 1 mg/ml pepstatin, and 1 mg/ml aprotinin), sonicated, and centrifuged at 4° C. for 30 min at 45,000 g. The supernatant was incubated with glutathione sepharose 4B beads (GE-Amersham, Piscataway, N.J.) for 1 hour at 4° C., and then washed 3 times in lysis buffer. Using these GST-proteins, GTPase activation assays were performed as described. […]

[3] = test system: ERK; experiment: Western blot, phosphorylation of ERK; assay type: cell-based, mouse; settings: low concentrations (0.1 & 1 mM)
Protocol: To assess the phosphorlyation status of ERK, […] of whole cell lysates was loaded onto SDS-PAGE, and Western blot analysis was done using anti-p-ERK (Santa Cruz; E-4; sc-7383) and anti-ERK (Santa Cruz; K-23; sc-94) antibodies. To detect active RhoA, Rac1 and Cdc42, generated GST-tagged RhoA binding domain of Rhotekin protein (GST-Rhotekin-RBD) and GST-tagged p21-binding domain of p21-activated kinase 1 (PAK1)(GST-PAK1-PBD) were first generated. Briefly, E. coli BL21 cells transformed with pGEX4T-PAK1-PBD or pGEX4T-Rh,otekin-RBD were grown at 37° C. and expression of recombinant protein was induced by addition of 0.1 mM IPTG for 3 hours. Cells were resuspended in lysis buffer (50 mM Tris-HCl, pH 8.0, 10% glycerol, 20% sucrose, 2 mM DTT, 1 mg/ml leupeptin, 1 mg/ml pepstatin, and 1 mg/ml aprotinin), sonicated, and centrifuged at 4° C. for 30 min at 45,000 g. The supernatant was incubated with glutathione sepharose 4B beads (GE-Amersham, Piscataway, N.J.) for 1 hour at 4° C., and then washed 3 times in lysis buffer. Using these GST-proteins, GTPase activation assays were performed as described.

[4] = test system: vascular smooth muscle cells; experiment: BrdU incorporation assay; assay type: cell-based, mouse; parameters: effect on BrdU labelling indices: dose or concentration left out as unconfirmed
Protocol: Mouse vascular smooth muscle cells, isolated as described (13), were maintained in 231 media (Cascade Biologics, Portland, Oreg.) supplemented with SMGS (Cascade Biologics) in a humidified incubator at 37° C. with 5% CO2. Cells from passages 4-9 were used in all experiments. All experiments were performed in subconfluent, unsynchronized cells growing in SMGS except for the lamellipodium formation assay.
Vascular smooth muscle cells were seeded at 2×10^4 cells per well in 96-well culture plates and incubated overnight. The next day, cells were found approximately 60-70% confluent. Cells were treated with various concentrations of morelloflavone ([…]) for 2 hrs and then pulsed with BrdU at 1 mM for 8 hrs. The amount of BrdU incorporated into the cells was quantified by BrdU Cell Proliferation Assay kit (Calbiochem, San Diego, Calif.), according to manufacturer's instructions. Briefly, the cells were fixed and permeabilized on tissue culture plastic, and incubated with anti-BrdU monoclonal antibody. After extensive washing, bound antibodies were visualized by goat anti-mouse IgG conjugated to horseradish peroxidase and tetra-methylbenzidine substrate and quantified by spectrophotometer at 450 nm. The protein content was determined using the Bradford assay (Bio-Rad, Hercules, Calif.).

[5] = biological target: T1, Lp-PLA2 (Homo sapiens, UniProt Q13093); experiment: PLA2 enzyme activity assay, Lp-PLA2; assay type: biochemical; settings: recombinant human Lp-PLA2, data not shown
T1 sequence (Q13093 22-441): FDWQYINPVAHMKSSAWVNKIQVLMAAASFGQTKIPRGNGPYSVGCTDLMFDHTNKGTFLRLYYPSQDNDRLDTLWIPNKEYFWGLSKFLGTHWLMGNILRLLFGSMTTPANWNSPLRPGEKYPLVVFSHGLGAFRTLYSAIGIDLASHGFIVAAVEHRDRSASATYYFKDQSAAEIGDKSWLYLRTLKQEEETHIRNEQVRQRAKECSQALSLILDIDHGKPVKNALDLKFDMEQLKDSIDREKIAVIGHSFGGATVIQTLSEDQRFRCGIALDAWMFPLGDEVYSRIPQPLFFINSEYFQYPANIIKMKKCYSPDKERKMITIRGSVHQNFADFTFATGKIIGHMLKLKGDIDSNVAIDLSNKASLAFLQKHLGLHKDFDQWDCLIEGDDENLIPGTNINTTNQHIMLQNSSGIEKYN
Protocol: Recombinant human sPLA2 isoforms, Group IB, Group IIA, Group V, and Lp-PLA2 were obtained from R&D Systems and Cayman Chemical Co. sPLA2 enzyme activities in the presence of various concentrations of morelloflavone or other inhibitors were determined using a commercially available assay system according to the manufacturer's instructions (Cayman Chemical Co.). Thioetheramide-1-palmitylthio-2-palmitoylamido-1,2-dideoxy-sn-glycero-3-phosphorylcholine (T-PC) and methyl arachidonyl fluorophosphonate (MAFP) were used as inhibitors of sPLA2 (IB, IIA, and V) and Lp-PLA2, respectively, per manufacturers' instructions.

Q: With `O=C1c2c(O)cc(O)cc2O[C@H](c2ccc(O)cc2)[C@H]1c1c(O)cc(O)c2c(=O)cc(-c3ccc(O)c(O)c3)oc12` [morelloflavone, 5,7, 4′, 5″, 7″, 3″, 4″-heptahydroxy-[3,8″]-flavonylflavanone] as the compound, how does the Body weight ([1]; 1 month) read?
A: 22.6 ± 1.5 gm

Q: And the Body weight ([1]; 2 months)?
A: 24.0 ± 1.6 gm

Q: What about the Body weight ([1]; 3 months) of the same compound?
A: 25.4 ± 1.5 gm

Q: And the Body weight ([1]; 4 months)?
A: 26.2 ± 1.5 gm

Q: What about the Body weight ([1]; 5 months) of the same compound?
A: 26.8 ± 1.3 gm

Q: And the Body weight ([1]; 6 months)?
A: 27.5 ± 1.7 gm

Q: What about the Body weight ([1]; 7 months) of the same compound?
A: 28.2 ± 2.5 gm

Q: What about the Body weight ([1]; Final (8 months)) of the same compound?
A: 28.4±2.3 gm

Q: What about the Body weight ([1]; Final (8 months), listed as Morelloflavone) of the same compound?
A: 28.4 ± 2.3 gm

Q: What about the Body weight ([1]; Initial (0 month), Ldlr−/−Apobec1−/− mice, N = 12) of the same compound?
A: 22.3 ± 1.4 gm

Q: And the “activation of Rac1” value [2]?
A: no significant effect; also recorded: without affecting

Q: What about the “phosphorylation of ERK” value [3] of the same compound?
A: inhibited; also recorded: robustly decreased phosphorylation; also recorded: blocks

Q: And the “effect on BrdU labelling indices” value [4]?
A: decreases BrdU labelling indices

Q: What about the “effect on percentage of S-phase cells / DNA synthesis (BrdU)” value ([4]; concentrations up to 10 mM) of the same compound?
A: did not significantly affect DNA synthesis; also recorded: does not affect the percentage of S-phase cells; also recorded: does not affect cell cycle progression

Q: And the “inhibition of Lp-PLA2” value [5]?
A: did not inhibit
